For assay [1], the target named is heat inactivated BoNT/A-LC (Clostridium botulinum, UniProt P0DPI0).
The target in assay [2] is T1, BoNT/A-LC (Clostridium botulinum, UniProt P0DPI0). Type of assay: biochemical.
Assay [3] has as its target BoNT/A Toxoid (Clostridium botulinum, UniProt P0DPI0).
The target of assay [4] is T1, BoNT/A-LC. Type of assay: biochemical. The source holds these as a separate data set.
Assay [5] concerns the target BoNT/A Holotoxin (Clostridium botulinum, UniProt P0DPI0). Type of assay: biochemical.

T1 sequence (P0DPI0 2-448 limits assumed): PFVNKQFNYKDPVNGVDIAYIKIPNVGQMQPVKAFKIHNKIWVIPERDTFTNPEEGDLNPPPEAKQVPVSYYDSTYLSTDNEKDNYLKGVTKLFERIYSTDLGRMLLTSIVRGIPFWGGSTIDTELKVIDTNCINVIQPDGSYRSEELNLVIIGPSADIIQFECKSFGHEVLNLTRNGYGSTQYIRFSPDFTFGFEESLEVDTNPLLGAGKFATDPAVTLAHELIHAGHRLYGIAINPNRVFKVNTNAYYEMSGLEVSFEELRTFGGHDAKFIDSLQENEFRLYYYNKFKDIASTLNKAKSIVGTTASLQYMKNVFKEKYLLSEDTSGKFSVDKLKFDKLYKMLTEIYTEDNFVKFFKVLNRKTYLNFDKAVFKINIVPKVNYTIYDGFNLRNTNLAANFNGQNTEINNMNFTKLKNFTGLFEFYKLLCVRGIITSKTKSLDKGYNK
heat inactivated BoNT/A-LC, sequence (P0DPI0 2-448 limits assumed): as above
BoNT/A Holotoxin, sequence (P0DPI0 2-448 limits assumed): as above
BoNT/A Toxoid, sequence (P0DPI0 2-448 limits assumed): as above

For “MDENLEQVSGIIGNLRHMALDMGNEIDTQNRQIDRIMEKADSN(KDabcyl)TRIDEANQRATKML(K5Fam) [SEQ. ID NO. 1]”, the “detection of heat inactivated BoNT/A-LC” value in assay [1] was “not heat inactivated BoNT/A-LC, even when present at high concentrations”. In addition, in assay [2], the “detection of BoNT/A-LC activity” value is “able to detect BoNT/A-LC”, the “detection of BoNT/A-LC activity in the presence of common PCR inhibitors” value was “can detect BoNT/A-LC activity in the presence of common PCR inhibitors”, the “detection of biologically active BoNT/A-LC” value is listed as “able to detect biologically active BoNT/A-LC” and the “fluorescence response to BoNT/A-LC” value is listed as “able to detect biologically active BoNT/A-LC”. For the same molecule, in assay [2], the “increase in fluorescence overtime compared to SNAPtide” value is recorded as “greater increase in fluorescence overtime” and the “limit of detection of BoNT/A-LC” value is on record as “at least 0.04 ng”. In assay [3], the “detection of BoNT/A Toxoid” value is reported as “not BoNT/A Toxoid, even when present at high concentrations”.

As to `O[C@H](CS)[C@H](O)CS` (racemic) [DTT, Dithiothreitol], the “effect on BoNT/A-LC activity” value in assay [4] is reported as “reduced BoNT/A-LC activity”.

In the case of `O=C(O)CCP(CCC(=O)O)CCC(=O)O` [TCEP, tris(2-carboxyethyl)phosphine, reference compound], the “performance of reducing agent in BoNT/A-LC assay” value in assay [2] is “performed better than samples with DTT (and zinc), and even better than samples containing no reducing agent”. Also, in assay [5], the “performance of TCEP concentration in BoNT/A Holotoxin assay” value is reported as “samples with 1.0 mM TCEP performed better than samples with 2.0 mM TCEP”.

Regarding “(KDabcyl)TRIDEANQRATKML(K5Fam) [SEQ. ID NO. 6]”, the “detection of BoNT/A-LC activity” value in assay [2] is recorded as “incapable of detecting BoNT/A-LC activity”.

Values taken from patent publication US9284595B2 (priority 2012, dated 2016).
